Each compound was assayed on RS411 cells (assay: Cell Viability CTG Assay (CellTiter Glo) in RS411 cells). Settings: Homo sapiens, RS4-11, 24 h, duration 1 day.
Type: cell-based
How it was run: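 RS411 cells at 1000 cells/well were exposed to compound (top final 10 μM, 3-fold, 11 doses; 0.2% DMSO) at 37 °C, 5% CO2 for 1-4 days. Viability was read by CellTiter Glo luminescence after 10 min at RT. IC50 is reported as letter-code bins.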

`Cn1c(=O)n(C2CCC(=O)NC2=O)c2ccc(CCCCCNC(=O)c3ccc(NC(=O)[C@@H]4NC5(CCCCC5)[C@@]5(C(=O)Nc6cc(Cl)ccc65)[C@H]4c4cccc(Cl)c4F)c4c3OCCO4)cc21` (stereo partly drawn) [I-163] and `Cn1c(=O)n(C2CCC(=O)NC2=O)c2ccc(CCCCCN3CCc4cc(NC(=O)[C@@H]5NC6(CCCCC6)[C@@]6(C(=O)Nc7cc(Cl)ccc76)[C@H]5c5cccc(Cl)c5F)ccc4C3)cc21` (stereo partly drawn) [I-189] cannot be ordered by IC50: < 0.05 µM for the first, < 0.05 µM for the second.

`CC1(C)CCC2(CC1)N[C@@H](C(=O)N[C@H]1CC[C@H](CN3CCC(C#Cc4ccn5c(N6CCC(=O)NC6=O)cnc5c4)CC3)CC1)[C@H](c1ccnc(Cl)c1F)[C@]21C(=O)Nc2cc(Cl)ccc21` [I-164] and `CC1(C)CCC2(CC1)NC(C(=O)N[C@H]1CC[C@H](CN3CCN(CCC#Cc4cccn5c(N6CCC(=O)NC6=O)cnc45)CC3)CC1)[C@H](c1ccnc(Cl)c1F)[C@]21C(=O)Nc2cc(Cl)ccc21` (stereo partly drawn) [I-203] cannot be ordered by IC50: < 0.05 µM for the first, < 0.05 µM for the second.

`Cn1c(=O)n(C2CCC(=O)NC2=O)c2ccc(CCC3CCN(C(=O)c4coc([C@@H]5NC6(CCCCC6)[C@@]6(C(=O)Nc7cc(Cl)ccc76)[C@H]5c5cccc(Cl)c5F)n4)CC3)cc21` (stereo partly drawn) [I-165] and `Cn1c(=O)n(C2CCC(=O)NC2=O)c2ccc(CCCCCOC3CCN(C(=O)c4coc([C@@H]5NC6(CCCCC6)[C@@]6(C(=O)Nc7cc(Cl)ccc76)[C@H]5c5cccc(Cl)c5F)n4)CC3)cc21` (stereo partly drawn) [I-172] cannot be ordered by IC50: > 1 µM for the first, > 1 µM for the second.

Compared with `CC(C)[C@@H](CS(=O)(=O)C(C)C)N1C(=O)[C@@](C)(CC(=O)N[C@H]2CC[C@H](CN3CCC(C#Cc4ccn5c(N6CCC(=O)NC6=O)cnc5c4)CC3)CC2)C[C@H](c2cccc(Cl)c2)[C@H]1c1ccc(Cl)cc1` [I-166], `CC(C)[C@@H](CS(=O)(=O)C(C)C)N1C(=O)[C@@](C)(CC(=O)N[C@H]2CC[C@H](CN3CCC(C#Cc4cccn5c(N6CCC(=O)NC6=O)cnc45)CC3)CC2)C[C@H](c2cccc(Cl)c2)[C@H]1c1ccc(Cl)cc1` [I-170] is lower in IC50: 0.5 to 1 µM for the first, 0.1 to 0.5 µM for the second. The second is the more potent here.

`CC(C)(C)C[C@@H]1N[C@@H](C(=O)N[C@H]2CC[C@H](CN3CCC(C#Cc4cccn5c(N6CCC(=O)NC6=O)cnc45)CC3)CC2)[C@H](c2cccc(Cl)c2F)[C@@]1(C#N)c1ccc(Cl)cc1F` [I-167] and `CC(C)(C)C[C@@H]1N[C@@H](C(=O)N[C@H]2CC[C@H](CNCCCC#Cc3cccn4c(N5CCC(=O)NC5=O)cnc34)CC2)[C@H](c2cccc(Cl)c2F)[C@@]1(C#N)c1ccc(Cl)cc1F` [I-202] cannot be ordered by IC50: > 1 µM for the first, > 1 µM for the second.

Compared with `COc1cc2c(cc1OC(C)C)C(c1ccc(Cl)cc1)N(c1ccc(N(C)C[C@H]3CC[C@H](N(C)C(=O)CCCCc4ccc5c(c4)n(C)c(=O)n5C4CCC(=O)NC4=O)CC3)cc1)C(=O)C2` (stereo partly drawn) [I-168], `COc1cc2c(cc1OC(C)C)C(c1ccc(Cl)cc1)N(c1ccc(N(C)C[C@H]3CC[C@H](N(C)CCc4ccc5c(c4)n(C)c(=O)n5C4CCC(=O)NC4=O)CC3)cc1)C(=O)C2` (stereo partly drawn) [I-195] is higher in IC50: < 0.05 µM for the first, > 1 µM for the second. The first is the more potent here.

First: Cn1c(=O)n(C2CCC(=O)NC2=O)c2ccc(C#CCCN3CCC(NC(=O)[C@@H]4NC5(CCCCC5)[C@@]5(C(=O)Nc6cc(Cl)ccc65)[C@H]4c4cccc(Cl)c4F)CC3)cc21 (stereo partly drawn) [I-169]
Second: Cn1c(=O)n(C2CCC(=O)NC2=O)c2ccc(C3CCN(C[C@H]4CC[C@H](NC(=O)[C@@H]5NC6(CCCCC6)[C@@]6(C(=O)Nc7cc(Cl)ccc76)[C@H]5c5cccc(Cl)c5F)CC4)CC3)cc21 (stereo partly drawn) [I-186]
The IC50 of the first is higher: > 1 µM for the first, < 0.05 µM for the second.

`Cn1c(=O)n(C2CCC(=O)NC2=O)c2ccc(CC[C@H]3CC[C@H](N4CCC(NC(=O)[C@@H]5NC6(CCCCC6)[C@@]6(C(=O)Nc7cc(Cl)ccc76)[C@H]5c5cccc(Cl)c5F)CC4)CC3)cc21` (stereo partly drawn) [I-171] and `Cn1c(=O)n(C2CCC(=O)NC2=O)c2ccc(N3CCN(C[C@H]4CC[C@H](NC(=O)[C@@H]5NC6(CCCCC6)[C@@]6(C(=O)Nc7cc(Cl)ccc76)[C@H]5c5cccc(Cl)c5F)CC4)CC3)cc21` (stereo partly drawn) [I-207] cannot be ordered by IC50: < 0.05 µM for the first, < 0.05 µM for the second.

`Cn1c(=O)n(C2CCC(=O)NC2=O)c2ccc(C3CCN(C(=O)[C@H]4CC[C@H](NC(=O)[C@@H]5NC6(CCCCC6)[C@@]6(C(=O)Nc7cc(Cl)ccc76)[C@H]5c5cccc(Cl)c5F)CC4)CC3)cc21` (stereo partly drawn) [I-174] and `Cn1c(=O)n(C2CCC(=O)NC2=O)c2ccc(N3CCN(C(=O)[C@H]4CC[C@H](NC(=O)[C@@H]5NC6(CCCCC6)[C@@]6(C(=O)Nc7cc(Cl)ccc76)[C@H]5c5cccc(Cl)c5F)CC4)CC3)cc21` (stereo partly drawn) [I-178] cannot be ordered by IC50: < 0.05 µM for the first, < 0.05 µM for the second.

Going from `COc1cc2c(cc1OC(C)C)C(c1ccc(Cl)cc1)N(c1ccc(N(C)C[C@H]3CC[C@H](N(C)CCOCCOCC(=O)N[C@H](C(=O)N4C[C@H](O)C[C@H]4C(=O)NCc4ccc(-c5scnc5C)cc4)C(C)(C)C)CC3)cc1)C(=O)C2` (stereo partly drawn) [I-175] to `COc1cc2c(cc1OC(C)C)C(c1ccc(Cl)cc1)N(c1ccc(N(C)C[C@H]3CC[C@H](N(C)CCCC#Cc4c(OC)ccc5c4n(C)c(=O)n5C4CCC(=O)NC4=O)CC3)cc1)C(=O)C2` (stereo partly drawn) [I-206], the IC50 falls from > 1 µM to < 0.05 µM. The second is the more potent here.

`Cn1c(=O)n(C2CCC(=O)NC2=O)c2ccc(C3CCN(C(=O)c4ccc(NC(=O)[C@@H]5NC6(CCCCC6)[C@@]6(C(=O)Nc7cc(Cl)ccc76)[C@H]5c5cccc(Cl)c5F)cc4)CC3)cc21` (stereo partly drawn) [I-176] and `Cn1c(=O)n(C2CCC(=O)NC2=O)c2ccc(CN3CCN(C(=O)[C@H]4CC[C@H](NC(=O)C5NC6(CCCCC6)[C@@]6(C(=O)Nc7cc(Cl)ccc76)[C@H]5c5cccc(Cl)c5F)CC4)CC3)cc21` (stereo partly drawn) [I-183] cannot be ordered by IC50: < 0.05 µM for the first, < 0.05 µM for the second.

`Cn1c(=O)n(C2CCC(=O)NC2=O)c2ccc(C3CCN(C(=O)[C@H]4CC[C@H](NC(=O)[C@@H]5NC6(CCC(C)(C)CC6)[C@@]6(C(=O)Nc7cc(Cl)ccc76)[C@H]5c5ccnc(Cl)c5F)CC4)CC3)cc21` (stereo partly drawn) [I-177] and `Cn1c(=O)n(C2CCC(=O)NC2=O)c2ccc(N3CCN(C[C@H]4CC[C@H](NC(=O)[C@@H]5NC6(CCC(C)(C)CC6)[C@@]6(C(=O)Nc7cc(Cl)ccc76)[C@H]5c5ccnc(Cl)c5F)CC4)CC3)cc21` (stereo partly drawn) [I-204] cannot be ordered by IC50: < 0.05 µM for the first, < 0.05 µM for the second.

`COc1cc2c(cc1OC(C)C)[C@H](c1ccc(Cl)cc1)N(c1ccc(N(C)CC3CCN(C(=O)CCCCCc4ccc5c(c4)n(C)c(=O)n5C4CCC(=O)NC4=O)CC3)cc1)C(=O)C2` (stereo partly drawn) [I-179] and `COc1cc2c(cc1OC(C)C)[C@H](c1ccc(Cl)cc1)N(c1ccc(N(C)CC3CCN(C(=O)CCCc4ccc5c(c4)n(C)c(=O)n5C4CCC(=O)NC4=O)CC3)cc1)C(=O)C2` (stereo partly drawn) [I-182] cannot be ordered by IC50: < 0.05 µM for the first, < 0.05 µM for the second.

`Cn1c(=O)n(C2CCC(=O)NC2=O)c2ccc(CCN3CCN(C(=O)[C@H]4CC[C@H](NC(=O)[C@@H]5NC6(CCCCC6)[C@@]6(C(=O)Nc7cc(Cl)ccc76)[C@H]5c5cccc(Cl)c5F)CC4)CC3)cc21` (stereo partly drawn) [I-180] and `Cn1c(=O)n(C2CCC(=O)NC2=O)c2ccc(CCN3CCN(C[C@H]4CC[C@H](NC(=O)[C@@H]5NC6(CCC(C)(C)CC6)[C@@]6(C(=O)Nc7cc(Cl)ccc76)[C@H]5c5ccnc(Cl)c5F)CC4)CC3)cc21` (stereo partly drawn) [I-196] cannot be ordered by IC50: < 0.05 µM for the first, < 0.05 µM for the second.

`COc1cc2c(cc1OC(C)C)[C@H](c1ccc(Cl)cc1)N(c1ccc(N(C)CC3CCN(C(=O)Cc4ccc5c(c4)n(C)c(=O)n5C4CCC(=O)NC4=O)CC3)cc1)C(=O)C2` (stereo partly drawn) [I-181] and `COc1cc2c(cc1OC(C)C)[C@@H](c1ccc(Cl)cc1)N(c1ccc(N(C)CC3CCN(CCCCCCc4ccc5c(c4)n(C)c(=O)n5C4CCC(=O)NC4=O)CC3)cc1)C(=O)C2` (stereo partly drawn) [I-197] cannot be ordered by IC50: > 1 µM for the first, > 1 µM for the second.

First: O=C1CCN(c2cnc3cc(NCCCCCNC[C@H]4CC[C@H](NC(=O)[C@@H]5NC6(CCCCC6)[C@@]6(C(=O)Nc7cc(Cl)ccc76)[C@H]5c5cccc(Cl)c5F)CC4)ccn23)C(=O)N1 [I-184]
Second: Cc1ccc2c(c1C1CCN(C[C@H]3CC[C@H](NC(=O)[C@@H]4NC5(CCCCC5)[C@@]5(C(=O)Nc6cc(Cl)ccc65)[C@H]4c4cccc(Cl)c4F)CC3)CC1)n(C)c(=O)n2C1CCC(=O)NC1=O (stereo partly drawn) [I-185]
The IC50 of the first is higher: 0.05 to 0.1 µM for the first, < 0.05 µM for the second. The second is the more potent here.

`COc1ccc2c(c1C1CCN(C[C@H]3CC[C@H](NC(=O)[C@@H]4NC5(CCCCC5)[C@@]5(C(=O)Nc6cc(Cl)ccc65)[C@H]4c4cccc(Cl)c4F)CC3)CC1)n(C)c(=O)n2C1CCC(=O)NC1=O` (stereo partly drawn) [I-187] and `Cn1c(=O)n(C2CCC(=O)NC2=O)c2ccc(CN3CCN(C[C@H]4CC[C@H](NC(=O)[C@@H]5NC6(CCC(C)(C)CC6)[C@@]6(C(=O)Nc7cc(Cl)ccc76)[C@H]5c5ccnc(Cl)c5F)CC4)CC3)cc21` (stereo partly drawn) [I-205] cannot be ordered by IC50: < 0.05 µM for the first, < 0.05 µM for the second.

First: Cc1ncsc1-c1ccc(CNC(=O)[C@@H]2C[C@@H](O)CN2C(=O)[C@@H](NC(=O)COCCOCC2CCN(C[C@H]3CC[C@H](NC(=O)[C@@H]4NC5(CCCCC5)[C@@]5(C(=O)Nc6cc(Cl)ccc65)[C@H]4c4cccc(Cl)c4F)CC3)CC2)C(C)(C)C)cc1 [I-188]
Second: Cn1c(=O)n(C2CCC(=O)NC2=O)c2ccc(C#CCCN3CCN(C[C@H]4CC[C@H](NC(=O)[C@@H]5NC6(CCC(C)(C)CC6)[C@@]6(C(=O)Nc7cc(Cl)ccc76)[C@H]5c5ccnc(Cl)c5F)CC4)CC3)cc21 (stereo partly drawn) [I-198]
The IC50 of the first is higher: > 1 µM for the first, < 0.05 µM for the second.

`COc1cc2c(cc1OC(C)C)C(c1ccc(Cl)cc1)N(c1ccc(N(C)C[C@H]3CC[C@H](N4CCN(CCCCCc5cccc6c5n(C)c(=O)n6C5CCC(=O)NC5=O)C(=O)C4)CC3)cc1)C(=O)C2` (stereo partly drawn) [I-192] and `COc1cc2c(cc1OC(C)C)C(c1ccc(Cl)cc1)N(c1ccc(N(C)C[C@H]3CC[C@H](N4CCN(CCCCCc5ccc6c(c5)n(C)c(=O)n6C5CCC(=O)NC5=O)C(=O)C4)CC3)cc1)C(=O)C2` (stereo partly drawn) [I-193] cannot be ordered by IC50: < 0.05 µM for the first, < 0.05 µM for the second.

`COc1cc2c(cc1OC(C)C)C(c1ccc(Cl)cc1)N(c1ccc(N(C)C[C@H]3CC[C@H](N4CCC(CCc5ccc6c(c5)n(C)c(=O)n6C5CCC(=O)NC5=O)CC4)CC3)cc1)C(=O)C2` (stereo partly drawn) [I-194] and `COc1cc2c(cc1OC(C)C)[C@H](c1ccc(Cl)cc1)N(c1ccc(N(C)CC3CCN(CCCCCCc4ccc5c(c4)n(C)c(=O)n5C4CCC(=O)NC4=O)CC3)cc1)C(=O)C2` (stereo partly drawn) [I-201] cannot be ordered by IC50: < 0.05 µM for the first, < 0.05 µM for the second.

`CC(C)(C)C[C@@H]1N[C@@H](C(=O)N[C@H]2CC[C@H](CNCCCC#Cc3ccc4c(N5CCC(=O)NC5=O)cncc4c3)CC2)[C@H](c2cccc(Cl)c2F)[C@@]1(C#N)c1ccc(Cl)cc1F` [I-199] and `COc1cc2c(cc1OC(C)C)C(c1ccc(Cl)cc1)N(c1ccc(N(C)CCCCCCCc3ccc4c(c3)n(C)c(=O)n4C3CCC(=O)NC3=O)cc1)C(=O)C2` (stereo not drawn) [I-208] cannot be ordered by IC50: > 1 µM for the first, > 1 µM for the second.
